{"source": "patent US9682993B2", "about": "“Anticancer compounds” (ST. JUDE CHILDREN'S RESEARCH HOSPITAL, priority 2012, dated 2017)", "key": {"[1]": {"experiment": "Maximum tolerated dose study (weight loss)", "format": "in vivo, C.B-17 scid mice", "details": "50 mg/kg four hour infusion daily for five days; day 5 of infusion", "experimental": "Xenograft tumors were first established from an SK-MEL-2 cell culture at the St. Jude Children's Research Hospital Xenograft Core. After these tumors were established as a mouse xenograft model, they were routinely maintained in the C.B-17 scid strain (Taconic Farms, Germantown, N.Y.). Experimental animals were prepared by transplanting small pieces of dissected tumors from donor animals into recipient mice. All animal studies were performed in accordance with the St. Jude Children's Research Hospital Animal Care and Use Committee. SK-MEL-2 xenograft tumors were transplanted into male C.B-17 scid mice on Day −21. On Days −7 to −5, a jugular vein catheter was surgically implanted into each mouse. […] Tumors were continuously measured during and after infusion periods, 5 times per week (weekdays). Tumor volumes were determined based on the following equation: Tuvol=(δ1/2+δ2/2)^1.5708, where δ1 and δ2 are diameters measured with a caliper at right angles of each other. […]\nThe in vivo effects, e.g. weight loss, of compound 20 were evaluated in mice using the methods described herein above. […] Weight of the test animals was determined daily (5 weight measurements/week). […]"}, "[2]": {"tested_on": "SK-MEL-2 xenograft tumors", "experiment": "In vivo tumor xenograft study", "design": "species or system C.B-17 scid mice", "experimental": "Xenograft tumors were first established from an SK-MEL-2 cell culture at the St. Jude Children's Research Hospital Xenograft Core. After these tumors were established as a mouse xenograft model, they were routinely maintained in the C.B-17 scid strain (Taconic Farms, Germantown, N.Y.). Experimental animals were prepared by transplanting small pieces of dissected tumors from donor animals into recipient mice. All animal studies were performed in accordance with the St. Jude Children's Research Hospital Animal Care and Use Committee. SK-MEL-2 xenograft tumors were transplanted into male C.B-17 scid mice on Day −21. On Days −7 to −5, a jugular vein catheter was surgically implanted into each mouse. […] Infusions were carried out by placing the animals inside a continuous infusion system (Instech Laboratories, Plymouth Meeting, Pa.), and delivering the vehicle or drug solution via the jugular catheter at a rate of 4 μL/min with a SP230iw syringe pump (WPI, Sarasota, Fla.). […] Tumors were continuously measured during and after infusion periods, 5 times per week (weekdays). Tumor volumes were determined based on the following equation: Tuvol=(δ1/2+δ2/2)^1.5708, where δ1 and δ2 are diameters measured with a caliper at right angles of each other. The size of the tumors ranged from 0.2 to 0.5 cm^3 at the times the infusions were initiated.\nThe efficacy of compound 20 in the inhibition of tumor growth in mice was evaluated using the methods as described herein above. Thus, SK-MEL-2 tumors were transplanted into male C.B-17 scid mice. The animals were subsequently infused over 4 h with either vehicle (8 mice) or compound 20 (9 mice) for 5 consecutive days."}, "[3]": {"details": "50 mg/kg over 4 h, once a day for 5 days"}}}
{"compound": "CNC(=O)O[C@@H](C)/C=C\\C(=O)N[C@H]1CC[C@@H](C/C=C(C)/C=C/[C@@H]2C[C@]3(CO3)CC(C)(C)O2)CC1", "note": "[compound 20, (S,Z)-5-(((1R,4R)-4-((2E,4E)-5-((3R,5S)-7,7-Methyl-1,6-Dioxaspiro[2.5]Octan-5-Yl)-3-Methylpenta-2,4-Dien-1-Yl)Cyclohexyl)Amino)-5-Oxopent-3-En-2-Yl Methylcarbamate]", "values": [{"measurement": "average weight loss", "setting": "[1]", "value": 12.7, "unit": "%"}, {"measurement": "inhibition of tumor growth during the infusion period", "setting": "[2]; [3]", "value": 100, "unit": "%"}, {"measurement": "inhibition of tumor growth subsequent to the dosing period", "setting": "[2]; [3]", "value": "significant inhibition"}, {"measurement": "fatalities or behavioral changes versus control infusion", "setting": "[2]; infusion over 4 h for 5 consecutive days", "value": "No differences in fatalities or behavioral changes"}]}
